Assay [1] has as its target T1, HLA-A*02:01 molecule (Homo sapiens, UniProt P04439, D140Y/D185E/D98H/E176V/E277Q/G131W/G231S/I119V/I121R/I166T/I218V/L300P/L318F/N151K/N90K/P208A/P217A/Q86G/Q94H/R138H/R169H/T345S).
T1 construct: host or cells: T2 (174xCEM.T2) human TAP-deficient cells
In words: Peptide binding affinity assay in TAP-deficient T2 cells. It counts as cell-based. As to conditions: peptide 5, 10, 20, 50 and 100 μM, 16 h at 27°C + 2 h at 37 °C, anti HLA-A2 R-PE, flow cytometry, triplicate. The method, then:
Peptide binding affinity to HLA-A*02:01 molecule and BFA decay assays were performed for each candidate peptide. Human TAP-deficient T2 cell line (174xCEM.T2; ATCC CRL 1992™) was purchased from American Type Culture Collection (ATCC; https://www.atcc.org/) and cultured in Iscove's modified Dulbecco's medium (IMDM; Gibco Life Technologies) containing 25 mM HEPES and 2 mM L-Glut, supplemented with 20% fetal bovine serum (FBS; Capricorn Scientific GmbH), 100 IU/ml penicillin and 100 μg/ml streptomycin (Gibco Life Technologies). Cells were maintained at 37 °C in a humidified incubator with 5% CO2. Briefly, T2 were seeded at 3.5 × 10^5 cells per well in 24 well plates and incubated 16 h at 27°C with peptides (final concentrations: 5, 10, 20, 50 and 100 μM) in IMDM serum free medium. The next day, cells have been incubated for additional 2 h at 37 °C. Following incubation, cells were harvested and centrifuged at 200 × g for 5 min. Subsequently, cells were washed twice with phosphate buffered saline (1X PBS; Gibco Life Technologies) and stained with R-PE conjugated anti human HLA-A2 mono-clonal antibody (cat. 343,306; BioLegend), for 30 min at 4 °C, and analyzed with the Attune™ NxT flow cytometer (Thermo Fisher Scientific). […] A fluorescence index (FI) was calculated using the following formula: FI = [mean fluorescence intensity (MFI) sample – MFI background]/MFI background, where MFI background represents the value without peptide. […] Cells were harvested every two hours (T0, T2, T4, T6, T8), washed with phosphate buffered saline (1X PBS; Gibco Life Technologies), stained with anti HLA-A*0201 fluorescent monoclonal antibody (cat. 343,306; BioLegend) and analyzed by flow cytometry. The stability of each peptide bound to HLA-A*02:01 was measured as the DC50 value, which was defined as an estimate of the time required for a 50% reduction of the MFI value at time 0. The DC50 value was calculated according to the formula: MFI at indicated time points/MFI at time 0 × 100. […]
On the technique in general: A flow cytometer gives signals particle by particle.

Assay [2] concerns the target T1, HLA-A*02:01 molecule. In words: BFA decay assay (peptide-MHC dissociation) in T2 cells. It counts as cell-based. The settings on record: peptide 50 μM, 1X BFA 1 h at 37°C, harvested every two hours T0-T8, flow cytometry, triplicate. The method, then:
Cells were maintained at 37 °C in a humidified incubator with 5% CO2.

Three sequences from publication PMC9569184, “Antigenic molecular mimicry in viral-mediated protection from cancer: the HIV case” (Journal of Translational Medicine, 2022) can be followed below.

For VIAGIVALV, the “binding to HLA-A*02:01 (HLA surface expression on T2 cells)” value (shortened to “binding”) at HLA-A*02:01 molecule [1] is recorded as “dose-dependent increase in the HLA surface expression on T2 cells over the background”.

Take VVAGIIALV: at HLA-A*02:01 molecule [1], the “binding” value is “dose-dependent increase in the HLA surface expression on T2 cells over the background”.

For “VVAGIVVLV [TAA derived from the colon ca-associated EPCAM protein]”, at HLA-A*02:01 molecule [1], the “binding” value was “dose-dependent increase in the HLA surface expression on T2 cells over the background”. On HLA-A*02:01 molecule [2], the “50% dissociation value (Thalf), peptide-MHC dissociation kinetics” value is 4 h.
